Laboratory results published in patent US7345080B2, “Substituted 4-pyrazolyl pyrazonlines used for pest control” (Bayer CropScience AG, priority 2002, dated 2008).

Tests used:
[1] = logP determination by HPLC (reversed-phase C 18), EEC Directive 79/831 Annex V.A8; format: physicochemical; conditions: acidic range, 0.1% aqueous phosphoric acid/acetonitrile; for chromatographic logP: reversed-phase C18 HPLC column, pH 2, reversed-phase C 18, 43° C.; for logP (pH 2): reversed-phase C 18, 43° C.
Method: The logP values given in the Tables and Preparation Examples above are determined in accordance with EEC Directive 79/831 Annex V.A8 by HPLC (High Performance Liquid Chromatography) using a reversed-phase column (C 18). Temperature: 43° C.
The determination is carried out in the acidic range at pH 2.3 using the-mobile phases 0.1% aqueous phosphoric acid and acetonitrile; linear gradient from 10% acetonitrile to 90% acetonitrile.

[2] = test system: caterpillars of the army worm (Spodoptera frugiperda); assay: Spodoptera frugiperda test (dipped cabbage leaves); format: in vivo; conditions: for Efficacy in % after 7d: 500 ppm active compound, kill after 7 d, cabbage leaves (Brassica oleracea); for kill: active compound concentration of 500 ppm, after 7 days
Method: Spodoptera frugiperda Test
(§1) • Solvent: 7 parts by weight of dimethylformamide • Emulsifier: 2 parts by weight of alkylaryl polyglycol ether
(§2) To produce a suitable preparation of active compound, 1 part by weight of active compound is mixed with the stated amount of solvent and emulsifier, and the concentrate is diluted with emulsifier-containing water to the desired concentration.
Cabbage leaves (Brassica oleracea) are treated by being dipped into the preparation of active compound of the desired concentration and are populated with caterpillars of the army worm (Spodoptera frugiperda) while the leaves are still moist.
After the desired period of time, the kill in % is determined. 100% means that all caterpillars have been killed; 0% means that none of the caterpillars have been killed.

[3] = test system: larvae of the mustard beetle (Phaedon cochleariae); assay: Phaedon larvae test (dipped cabbage leaves); format: in vivo; conditions: 500 ppm active compound, kill after 7 d, cabbage leaves (Brassica oleracea)
Method: as §1, §2
After the desired period of time, the kill in % is determined. 100% means that all beetle larvae have been killed; 0% means that none of the beetle larvae have been killed.

Row | chromatographic logP [1] | Structure (SMILES) | logP (pH 2) [1] | Efficacy in % after 7d [2] | kill [2] | Efficacy in % after 7d [3]
1 | 2.96 | CC(C)(C)n1nnc(-c2cnn(CC(=O)c3ccc(Cl)cc3)c2)n1 [2-[4-(2-tert-butyltetrazol-5-yl)pyrazol-1-yl]-4′-chloroacetophenone] |  |  |  | 
2 | 1.6 | O=C(Cn1cc(-c2nn[nH]n2)cn1)c1ccc(Cl)cc1 [2-[4-(tetrazol-5-yl)pyrazol-1-yl]-4′-chloroacetophenone] |  |  |  | 
3 | 2.91 | CC(C)(C)n1nnc(-c2cnn(C3CNN=C3c3ccc(Cl)cc3)c2)n1 (centres unmarked) [3-(4-chlorophenyl)-4-[4-(2-tert-butyltetrazol-5-yl)pyrazol-1-yl]4,5-dihydro-1H-pyrazole] |  |  |  | 

Second part, the molecule before the results:

Row | Structure (SMILES) | chromatographic logP [1] | logP (pH 2) [1] | Efficacy in % after 7d [2] | kill [2] | Efficacy in % after 7d [3]
4 | CC(C)(C)n1nnc(-c2cnn(C3CN(C(=O)Nc4ccc(OC(F)(F)F)cc4)N=C3c3ccc(Cl)cc3)c2)n1 (centres unmarked) [Example 1, N-(4-trifluoromethoxy)-3-(4-chlorophenyl)-4-[4-(2-tert-butyltetrazol-5-yl)pyrazol-1-yl]-4,5-dihydro-1-pyrazolecarboxanilide] |  | 4.63 |  |  | 
5 | CC(C)(C)n1nnc(-c2cnn(C3CN(C(=O)N(CC#N)c4ccc(OC(F)(F)F)cc4)N=C3c3ccc(Cl)cc3)c2)n1 (centres unmarked) [Example 2, N-cyanomethyl-N(4-trifluoromethoxy)-3-(4-chlorophenyl)-4-[4-(2-tert-butyltetrazol-5-yl)pyrazol-1-yl]-4,5-dihydro-1-pyrazolecarboxanilide] |  | 4.40 | 100% | 100% | 100%
6 | Cn1nnc(-c2cnn(C3CN(C(=O)Nc4ccc(OC(F)(F)F)cc4)N=C3c3ccc(Cl)cc3)c2)n1 (centres unmarked) [Example 4] | 3.75 |  | 100% | 100% | 
7 | Cn1nnc(-c2cnn(C3CN(C(=O)N(CC#N)c4ccc(OC(F)(F)F)cc4)N=C3c3ccc(Cl)cc3)c2)n1 (centres unmarked) [Example 6] | 3.51 |  | 100% |  | 100%
